# Measurements published in patent US3984432A, “Color photographic recording material” (priority 1973, dated 1976).
# Experiment: Absorption maximum after colour development in a photographic silver halide layer according to Use Example I
# Assay type: physicochemical
# Conditions: not given
# Method: The compounds of the formulae which follow are prepared according to methods which are in themselves known, from the corresponding 4-equivalentcoupling agents (the corresponding compounds with hydrogen in the position marked with *, in place of the substituents drawn). With regard to methods of manufacture, compare DT-OS or DT-AS 1,236,332, 2,043,271, 1,547,672 or 1,187,477. Next to the formula, the absorption maximum in nm is specified in each case (see footnote to Table I). ##SPC8##
# *)After colour development of the coupling agents in a photographic silve
# halide layer according to Use Example I
# 0.3 mmol of coupling agent of the formula (215) is dissolved in 2.0 ml of tricresyl phosphate/methylene chloride (3:7). The methylene chloride is evaporated off, 6.0 ml of an 8% strength aqueous solution of sodium isopropylnaphthalene-sulphonate, 20.0 ml of 6% strength gelatine solution and 3.4 ml of water are added and the mixture is adjusted to pH 6.5 and emulsified for 5 minutes by means of an ultrasonic apparatus with an output of 100 watt.
# 5.0 of coupling agent emulsion freshly treated with ultrasonics, 3.3 ml of silver bromide emulsion of pH 6.5, containing 1.4% of silver and 6.0% of gelatine, 2.0 ml of 1% strength aqueous solution of the hardener of the formula [formula] and 1.7 ml of water are mixed with one another and cast at 40°C on a substrated glass plate of size 13 cm × 18 cm. After solidifying at 10° C, the plate is dried in a drying cabinet with circulating air at 32° C.
# A strip cut to 4.0 cm × 6.5 cm is exposed to 500 Lux/cm^2 under a step wedge for 2 seconds and is subsequently treated at 24° C as follows: […]
row,SMILES,Abs.max. (single maximum)
1,CCOP(=O)(CCCOc1cccc(NC(=O)c2ccc3ccccc3c2O)c1)OCC [(601)],704 nm
2,COc1ccc(C(=O)C(Cl)C(=O)Nc2ccc(OP(=O)(Oc3ccccc3)C(C)(C)C)cc2)cc1 (stereo not drawn) [(146)],437 nm
3,CCCCOP(=O)(CCCc1ccc(NC(=O)c2ccc(OC)c(NC(=O)CC(=O)C(C)(C)C)c2)cc1)OCCCC [(118)],438 nm
4,CCCCOP(=O)(CCCc1ccc(NC(=O)c2ccc(OC)c(NC(=O)CC(=O)c3ccc(OC)cc3)c2)cc1)OCCCC [(126)],448 nm
5,CCOP(=O)(OCC)C(C)(C)NC(=O)c1cccc(NC(=O)c2cccc(NC(=O)CC(=O)c3ccccc3)c2)c1 [(107)],444 nm
6,CCCCOP(=O)(CCCc1ccc(NC(=O)C(Cl)C(=O)c2ccccc2)cc1)OCCCC (stereo not drawn) [(147)],436 nm
7,CCCCOP(=O)(CCCc1ccc(NC(=O)CC(=O)c2ccc(Cl)cc2)cc1)OCCCC [(125)],440 nm
8,CCCCOP(=O)(CCCC)Nc1cccc(NC(=O)c2cc(NC(=O)CC(=O)c3ccccc3)ccc2Cl)c1 (stereo not drawn) [(141)],438 nm

# Same assay, conditions: pyrazolone coupling agents
SMILES,"Abs.max., first of two maxima (subsidiary maximum)","Abs.max., second of two maxima (absorption maximum)"
CCCCC(CC)COP(=O)(CCCOc1cccc(C(=O)Nc2ccc(NC3=NN(c4ccccc4)C(=O)C3)cc2)c1)OCC(CC)CCCC (stereo not drawn) [(420)],428 nm,529 nm
CC(C)OP(=O)(CCCOc1cccc(C(=O)NC2=NN(c3c(Cl)cc(Cl)cc3Cl)C(=O)C2)c1)OC(C)C [(217)],435 nm,538 nm
CCOP(=O)(CCCCCOc1cc(OCCCCCP(=O)(OCC)OCC)cc(C(=O)NC2=NN(c3c(Cl)cc(Cl)cc3Cl)C(=O)C2)c1)OCC [(214)],432 nm,540 nm
CCOP(=O)(CCCc1ccc(NC2=NN(c3c(Cl)cc(Cl)cc3Cl)C(=O)C2)cc1)OCC [(408)],426 nm,530 nm
CCOP(=O)(CCCOc1ccc(NC2=NN(c3c(Cl)cc(Cl)cc3Cl)C(=O)C2)cc1)OCC [(404)],425 nm,530 nm
CCOP(=O)(CCCOc1ccc(C(=O)Nc2cccc(C(=O)NC3=NN(c4c(Cl)cc(Cl)cc4Cl)C(=O)C3)c2)cc1)OCC [(206)],434 nm,542 nm
CCOP(=O)(CCCc1ccc(NC2=NN(c3cccc(Cl)c3)C(=O)C2)cc1)OCC [(410)],438 nm,532 nm
CCCCOP(=O)(CCCOc1cc(OCCCP(=O)(OCCCC)OCCCC)cc(C(=O)Nc2ccc(Cl)c(NC3=NN(c4c(Cl)cc(Cl)cc4Cl)C(=O)C3)c2)c1)OCCCC [(428)],430 nm,537 nm
CC(C)OP(=O)(CCCOc1cc(OCCCP(=O)(OC(C)C)OC(C)C)cc(C(=O)Nc2cccc(C(=O)NC3=NN(c4ccccc4)C(=O)C3)c2)c1)OC(C)C [(238)],440 nm,530 nm
CCOP(=O)(CCCOc1ccc(C(=O)NC2=NN(c3c(Cl)cc(Cl)cc3Cl)C(=O)C2)cc1)OCC [(204)],434 nm,534 nm
CCCCOP(=O)(CCCOc1cc(OCCCP(=O)(OCCCC)OCCCC)cc(C(=O)Nc2cccc(C(=O)NC3=NN(c4c(Cl)cc(Cl)cc4OC)C(=O)C3)c2)c1)OCCCC [(265)],436 nm,537 nm
CCOP(=O)(CCCCCOc1cccc(C(=O)Nc2ccc(C(=O)NC3=NN(c4c(Cl)cc(Cl)cc4Cl)C(=O)C3)cc2)c1)OCC [(207)],434 nm,540 nm
CCCCOP(=O)(CCCOc1cc(OCCCP(=O)(OCCCC)OCCCC)cc(C(=O)Nc2cccc(C(=O)NC3=NN(c4cccc(Cl)c4)C(=O)C3)c2)c1)OCCCC [(255)],438 nm,536 nm
CCCCOP(=O)(CCCOc1cc(OCCCP(=O)(OCCCC)OCCCC)cc(C(=O)Nc2cccc(NC3=NN(c4ccc(S(C)(=O)=O)cc4)C(=O)C3)c2)c1)OCCCC [(430)],430 nm,540 nm
CCCCC(CC)COP(=O)(CCCOc1cccc(C(=O)Nc2cccc(C(=O)NC3=NN(c4c(C)cc(C)cc4Cl)C(=O)C3)c2)c1)OCC(CC)CCCC (stereo not drawn) [(262)],440 nm,536 nm
CCCCC(CC)COP(=O)(CCCOc1cc(OCCCP(=O)(OCC(CC)CCCC)OCC(CC)CCCC)cc(C(=O)Nc2cccc(C(=O)NC3=NN(c4c(C)cc(C)cc4Cl)C(=O)C3)c2)c1)OCC(CC)CCCC (stereo not drawn) [(263)],440 nm,534 nm
CCCCOP(=O)(CCCOc1cc(OCCCP(=O)(OCCCC)OCCCC)cc(C(=O)Nc2cccc(C(=O)NC3=NN(c4c(Cl)cc(Cl)cc4Cl)C(=O)C3)c2)c1)OCCCC [(222)],434 nm,544 nm
CCCCC(CC)COP(=O)(CCCOc1cccc(OCC(=O)Nc2cccc(C(=O)NC3=NN(c4c(Cl)cc(Cl)cc4Cl)C(=O)C3)c2)c1)OCC(CC)CCCC (stereo not drawn) [(270)],438 nm,544 nm
CCOP(=O)(CCCOc1cc(OCCCP(=O)(OCC)OCC)cc(C(=O)NC2=NN(c3c(Cl)cc(Cl)cc3Cl)C(=O)C2)c1)OCC [(209)],436 nm,540 nm
CCCCC(CC)COP(=O)(CCCOc1cccc(C(=O)Nc2cccc(C(=O)NC3=NN(c4c(Cl)cc(OC)cc4Cl)C(=O)C3)c2)c1)OCC(CC)CCCC (stereo not drawn) [(267)],436 nm,536 nm
CCCCOP(=O)(CCCOc1cccc(C(=O)Nc2cccc(NC3=NN(c4c(Cl)cc(Cl)cc4Cl)C(=O)C3)c2)c1)OCCCC [(419)],427 nm,532 nm
CCCCC(CC)COP(=O)(CCCOc1cccc(C(=O)Nc2cccc(NC(=O)NC3=NN(c4c(Cl)cc(Cl)cc4Cl)C(=O)C3)c2)c1)OCC(CC)CCCC (stereo not drawn) [(274)],430 nm,546 nm
CCCCC(CC)COP(=O)(CCCOc1cccc(C(=O)Nc2cccc(C(=O)NC3=NN(c4c(C)cc(Cl)cc4Cl)C(=O)C3)c2)c1)OCC(CC)CCCC (stereo not drawn) [(269)],438 nm,540 nm
CCOP(=O)(CCCc1ccc(NC2=NN(c3ccccc3)C(=O)C2)cc1)OCC [(407)],429 nm,527 nm
CC(C)OP(=O)(CCCOc1cc(OCCCP(=O)(OC(C)C)OC(C)C)cc(C(=O)Nc2cccc(C(=O)NC3=NN(c4c(Cl)cc(Cl)cc4Cl)C(=O)C3)c2)c1)OC(C)C [(240)],434 nm,544 nm
CCCCOP(=O)(CCCOc1cccc(C(=O)Nc2cccc(NC3=NN(c4ccccc4)C(=O)C3)c2)c1)OCCCC [(418)],430 nm,530 nm
CCCCOP(=O)(CCCOc1cc(OCCCP(=O)(OCCCC)OCCCC)cc(C(=O)Nc2cccc(C(=O)NC3=NN(c4c(C)cc(Cl)cc4Cl)C(=O)C3)c2)c1)OCCCC [(272)],438 nm,540 nm
CCCCOP(=O)(CCCOc1cccc(NC2=NN(c3cccc(Cl)c3)C(=O)C2)c1)OCCCC [(411)],428 nm,532 nm
CCCCOP(=O)(CCCOc1cccc(NC2=NN(c3ccccc3)C(=O)C2)c1)OCCCC [(412)],430 nm,528 nm
